Key:
[1] = Bioanalytical assessment of plasma and brain concentrations after mouse DC-MES assay; assay type: in vivo; conditions: mouse, in vivo, WT mouse DC-MES acute
Summary of the method: (§1)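 Blood (cardiac puncture, EDTA) and whole brains taken at end of the in vivo assay; brain homogenized in 1:1 acetonitrile/water. Plasma and homogenate extracted by acetonitrile protein precipitation with internal standard, quantified by UHPLC-ESI-MS/MS against a 1/X-weighted linear calibration.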

Sprague Dawley rats = assay: Observation of potential adverse behavior (behavioral signs) in the rat DC-MES studies; assay type: in vivo; conditions: for behavioral signs concentration (BSC) / plasma EC50 ratio (Tolerability / EC50 Rat MES): rat DC-MES
Method: Animals were observed by the scientist(s) responsible for dosing for the first 30 min after dosing for and again at the time of assay (2 hr post dose) for signs of abnormal behavior.

[2] = Bioanalytical assessment of plasma and brain concentrations after 6 Hz assay; assay type: in vivo, mouse; conditions: Scn8a^N1768D/+, mouse, in vivo, SCN8A mouse 6HZ
Summary of the method: as §1

Scn8a^N1768D/+ mice = assay: Modified 6 Hz psychomotor seizure assay; assay type: in vivo, mouse
Summary of the method: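 Heterozygous Scn8a^N1768D/+ mice aged 5 weeks (p35) underwent a modified 6 Hz psychomotor seizure assay as an in vivo readout of NaV1.6-mediated efficacy. Compounds were given 2 hr before corneal electroshock (6 Hz, 12 mA, 3 s, 0.3-ms pulse interval) after Alcaine eye anesthesia. Blinded scoring counted generalized tonic-clonic seizure with hindlimb extension as unprotected (1), prevention as protected (0).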

## COC[C@@H](NC(C)=O)C(=O)NCc1ccccc1 [lacosamide, Lacosamide, reference compound]
[1]; 3 mg/kg, Study18003, 3 mg/kg, read-out: Mean [Brain]
  concentration at 2 h: 3.47 µM
[1]; 3 mg/kg, Study18003, 3 mg/kg, read-out: Mean [Palsma]
  concentration at 2 h: 3.25 µM
[1]; 3 mg/kg, Study18053, 3 mg/kg, read-out: Mean [Brain]
  concentration at 2 h: 1.95 µM
[1]; 3 mg/kg, Study18053, 3 mg/kg, read-out: Mean [Palsma]
  concentration at 2 h: 6.21 µM
[1]; 3 mg/kg, Study18063, 3 mg/kg, read-out: Mean [Brain]
  concentration at 2 h: 1.26 µM
[1]; 3 mg/kg, Study18063, 3 mg/kg, read-out: Mean [Palsma]
  concentration at 2 h: 4.46 µM
[1]; 10 mg/kg, Study18003, 10 mg/kg, read-out: Mean [Brain]
  concentration at 2 h: 11.5 µM
[1]; 10 mg/kg, Study18003, 10 mg/kg, read-out: Mean [Palsma]
  concentration at 2 h: 9.52 µM
[1]; 30 mg/kg, Study18003, 30 mg/kg, read-out: Mean [Brain]
  concentration at 2 h: 34.3 µM
[1]; 30 mg/kg, Study18003, 30 mg/kg, read-out: Mean [Palsma]
  concentration at 2 h: 26.7 µM
Sprague Dawley rats; rat
  minimal plasma concentration provoking behavioral signs (BSC): 123 µM
Sprague Dawley rats
  behavioral signs concentration (BSC) / plasma EC50 ratio (Tolerability / EC50 Rat MES): 5.0 fold
Sprague Dawley rats; listed as Lacosamide
  behavioral signs concentration (BSC) / plasma EC50 ratio (Tolerability / EC50 Rat MES): 6.3 fold
[2]; 1 mg/kg, Study18011, 1 mg/kg, read-out: Mean [Brain]
  concentration at 2 h: 0.728 µM
[2]; 1 mg/kg, Study18011, 1 mg/kg, read-out: Mean [Palsma]
  concentration at 2 h: 1.12 µM
[2]; 3 mg/kg, Study18007, 3 mg/kg, read-out: Mean [Brain]
  concentration at 2 h: 2.84 µM
[2]; 3 mg/kg, Study18007, 3 mg/kg, read-out: Mean [Palsma]
  concentration at 2 h: 3.48 µM
[2]; 10 mg/kg, Study18007, 10 mg/kg, read-out: Mean [Brain]
  concentration at 2 h: 9.32 µM
[2]; 10 mg/kg, Study18007, 10 mg/kg, read-out: Mean [Palsma]
  concentration at 2 h: 10.7 µM
[2]; 10 mg/kg, Study18028, 10 mg/kg, read-out: Mean [Brain]
  concentration at 2 h: 7.58 µM
[2]; 10 mg/kg, Study18028, 10 mg/kg, read-out: Mean [Palsma]
  concentration at 2 h: 11.8 µM
[2]; 10 mg/kg, Study18042, 10 mg/kg, read-out: Mean [Brain]
  concentration at 2 h: 3.27 µM
[2]; 10 mg/kg, Study18042, 10 mg/kg, read-out: Mean [Palsma]
  concentration at 2 h: 14.4 µM
[2]; 30 mg/kg, Study18007, 30 mg/kg, read-out: Mean [Brain]
  concentration at 2 h: 21 µM
[2]; 30 mg/kg, Study18007, 30 mg/kg, read-out: Mean [Palsma]
  concentration at 2 h: 25.2 µM
[2]; 30 mg/kg, Study18011, 30 mg/kg, read-out: Mean [Brain]
  concentration at 2 h: 19.2 µM
[2]; 30 mg/kg, Study18011, 30 mg/kg, read-out: Mean [Palsma]
  concentration at 2 h: 29.6 µM
[2]; 56 mg/kg, Study18011, 56 mg/kg, read-out: Mean [Brain]
  concentration at 2 h: 28.3 µM
[2]; 56 mg/kg, Study18011, 56 mg/kg, read-out: Mean [Palsma]
  concentration at 2 h: 44.7 µM
Scn8a^N1768D/+ mice; Mus musculus, 2 h, read-out: brain EC50
  EC50: 3.3 µM
Scn8a^N1768D/+ mice; Study18007, 3 mg/kg
  SCN8A mouse 6HZ Fraction of animals seizing: 0.429
Scn8a^N1768D/+ mice; Study18007, 10 mg/kg
  SCN8A mouse 6HZ Fraction of animals seizing: 0.286
Scn8a^N1768D/+ mice; Study18007, 30 mg/kg
  SCN8A mouse 6HZ Fraction of animals seizing: 0.286
Scn8a^N1768D/+ mice; Study18011, 1 mg/kg
  SCN8A mouse 6HZ Fraction of animals seizing: 0.858
Scn8a^N1768D/+ mice; Study18011, 30 mg/kg
  SCN8A mouse 6HZ Fraction of animals seizing: 0.5
Scn8a^N1768D/+ mice; Study18011, 56 mg/kg
  SCN8A mouse 6HZ Fraction of animals seizing: 0.286
Scn8a^N1768D/+ mice; Study18028, 10 mg/kg
  SCN8A mouse 6HZ Fraction of animals seizing: 0.375
Scn8a^N1768D/+ mice; Study18042, 10 mg/kg
  SCN8A mouse 6HZ Fraction of animals seizing: 0.5

Source: PMC8903829 (eLife, 2022)
